Where two headings read alike, the source gives them in different places.
What was measured:
[1] = test system: 293-EBNA cells expressing recombinant human EDG-4; experiment: Cytotoxicity seen in the EDG-4 agonist reporter assay (293-EBNA cells); format: cell-based
Description: (§1) Transfection of EDG-4, expression, pretreatment and treatment of 293-EBNA cells expressing recombinant human EDG-4 was carried out essentially as described in “Example 11. […] Results were tabulated in Microsoft Excel, and analyzed with GraphPad Prism software. […] The luciferase response was expressed as fold response, after subtracting any endogenous response in pcDNA3-transfected cells at a given concentration of compound.

[2] = test system: Human Umbilical Vein Endothelial Cells (HUVEC); experiment: IL-8 ELISA on primary cultured HUVEC treated with lysolipids; format: cell-based; settings: 6 hr treatment
Description: Plating, Pretreatment and Treatment of HUVEC
Procedures were followed as detailed above in “Procedure #1 for HeLa Cells” with the following exceptions:
Cells were plated at 20,000 cells/well into 24-well plates. The next day, cells were serum-starved overnight in EBM medium (Clonetics) with 0.5% FBS, and then treated in EBM without FBS for 6 hr with the following lysolipids:
Supematants were collected and IL-8 levels were deternined using ELISA as described previously.

human EDG-4 = human EDG-4 (Homo sapiens, UniProt O95136); experiment: SRE luciferase reporter in 293-EBNA cells, human EDG-4; format: cell-based; settings: for EC50: 293-EBNA expressing human EDG-4, luciferase after 6 hr, pcDNA3 response subtracted; for Agonist character at EDG-4: conclusion from the reporter assay of Table 2; for Rank (EMax): rank of efficacy among compounds tested
Description: NE-κB activates gene expression by binding to specific DNA sequences found in the promoters of genes regulated by this inflammation-related transcription factor. […] The SRE reporter was identical to the NF-κB reporter, except that the NF-κB binding sites were replaced with 2 SRE sites. The new reporter was called 2XSREtk-p4Luc-zeo.
The protocol described in Example 11 for Assay 1 was followed except for the following changes:
2) SRE Cotransfection: 0.5 μg of 2XSREtk-p4Luc-zeo reporter DNA and 3.5 μg pcDNA3, EDG-1, EDG-3 (pC3-hE3HP2, different from the clone used in Assay 2 of Example 11) or the newly cloned human EDG-4 (pC3-hedg4#36); NF-κB Cotransfection: 2 μg 6XNFκBtk-p4Luc-zeo reporter DNA and 2.0 μg pcDNA3, EDG-1, EDG-3 (pC3-hE3HP2), or EDG-4 (pC3-hedg4#36). Expression plasmid and reporter plasmid DNA samples were combined and diluted in 750 μl of DMEM/F12 (serum free media) and 20 μl Plus Reagent (Lipofectamine Plus Kit, Life Technologies Cat. 10964-013), and incubated at room temperature for 15 min.
1) Media was removed and cells treated with compounds diluted in DMEM/F12 media.
2) The cells were treated for 6 hours.
3) Luciferase assay was performed.
Transfection was accomplished using the Lipofectamine Plus kit (Life Technologies, Cat. 10964-013), using the manufacturer's recommended conditions.
as §1

HeLa cells [3] = experiment: IL-8 ELISA on supernatants of treated HeLa cells; format: cell-based, human; settings: for Inhibition of IL-8 response to S1P by antioxidants: NDGA 10 or 40 μM, NAC 30 mM
Description: Procedure #1 For HeLa Cells
Cells: HeLa (adenocarcinoma, human)
Media: DMEM/F12+10%FBS adherent
1) Cells were seeded at 0.2×10^6 cells/well in 6-well plates.
2) 1.5 ml 0.5% FBS media was added to each well.
1) Made up all required solutions in 0.5% FBS media (control). Handling of […] for use in NF-κB experiments requires that sonication, commonly used to resuspend LPA, not be done; NF-κB may be activated by lipid peroxides created through vigorous frothing.
3) 1.5 ml appropriate treatments were added to each well.
5) After the specified time cell supernatants were collected into 1.5 ml eppendorf tubes, spun down at 14000 rpm for 5 minutes and stored at −20° C. for later ELISA determination.
D. Detection of Interleukin-8 (IL-8) using an IL-8 ELISA (Enzyme-Linked InimunoSorbent Assay).
1) The Quantikine Human IL-8 ImmunoAssay Kit was obtained from R&D Systems (Cat. D8050).
4) The assay procedure was followed as recommended in the kit for cell culture supernatant samples.
5) ELISA was performed on 50 μl samples of culture supernatant and duplicate samples were measured for each well. Each treatment was performed on triplicate wells.
6) Plates were read on UVmax kinetic microplate reader (Molecular Devices), set to 450 nm and correction set to 575 nm, using Wsoftmax software version 2.34.
Procedure #2 For HeLa Cells
1) Cells were seeded at 2.5×10^4 cells/well in 24-well plates.
2) 0.5 ml 0.5% FBS media was added to all wells not requiring PTX pre-treatment.
3) For wells requiring PTX; 0.5 ml 0.5% FBS media containing 50 ng/ml PTX (1 volume PTX (RBI Cat. P140): 1 volume DTT, incubate 37° C. for 30 minutes then dilute to 50 ng/ml) was added.
Follow Procedure #2 For HeLa Cells with the following exceptions:
Concentrations for LPC, LPE, LPG, LPS, sphingosine and SM used were 10, 50, 100, 1000, and 5000 nM. Concentrations for LPI, lyso-PAF and lysosulfatide used were 0.3 and 3 μM.
2) A 30 minute pre-treatment at 37° C./5%CO2 of 0.5 ml of suramin was done to all wells except control, any PTX and ET-18-OCH3 wells before step 3 of section C.

HeLa cells [4] = experiment: Cytotoxicity (viable cell count) in HeLa cells; format: cell-based, human; settings: 40 μM
From the text: Follow Procedure #2 For HeLa Cells with the following exceptions: […]

rat edg4 = rat edg4 (Rattus norvegicus, UniProt P47752); experiment: NF-κB-tk-p4Luc luciferase reporter in 293-EBNA cells, rat EDG-4; format: cell-based; parameters: expressed in transfected cells; host or cells: 293-EBNA; settings: pC3-redg4, Assay #1, 24 hrs
Description: Monolayer Transient Transfection Protocol for 293-EBNA
1) 150 mm plates of 293-EBNA obtained from Invitrogen (Cat. R620-07) with a confluency of ˜80% were used for transfection.
2) 6.6 μg NF-κB-tk-p4Luc reporter DNA and 6.6 μg of pC3-redg4 (expressing rat EDG-4), or pcDNA3 DNA was diluted in 500 μl OPTI-MEM (Gibco; Cat. 31985-062)
3) 96.8 μl Lipofectamine (Gibco; Cat. 18324-020) was diluted in 500 μl of OPTI-MEM.
6) 6 ml OPTI-MEM was added to each transfection tube and this was added to a plate of 293-EBNA cells. The plates were left for 4 hrs at 37° C. in a 5% CO2 incubator.
2) 0.02×10^6 cells were plated per well of a 96-well Blackview plate coated with polyD-lysine. No cells were plated in the outside wells of the 96well plate. Two 96-well plates were seeded for each transfection.
1) Cells were washed with PBS and 140 μl serum-free media (SFM) added to each well. Plates were incubated in 37° C. incubator for 6 hrs.
2) After 6 hrs, media was removed and cells treated with compounds diluted in 0.5% FBS media (140 μl added to each well).
3) Cells were treated for 24 hrs.
1) Luclite kit (Packard; Cat. 6016911) was used for luciferase assay. All reagents were brought to room temperature before use.
3) 50 μl 0.5M HEPES pH 7.8 buffer (1 mM MgCl2, 1 mM CaCl2) was added to all wells of 96-well plate. Black adhesive backing (Polyfitronics) was aligned to the bottom of the viewplate.
4) Luclite substrate was made up by adding 10 ml substrate diluent to 1 vial lyophilized substrate. Reconstituted substrate was kept under a dark container. 50 μl substrate was added to each well.
7) After incubation, plates were counted in a 12-detector Packard Top Count on a program without dark delay.
Transient Transfection Protocol for 293-EBNA
The above protocol for assay 1 was followed except for the following changes:
2) 3 μg NFκB-tk-p4Luc reporter DNA and 3 μg pC3-hedg1, pC3-hedg3, pC3-redg4, pC3-hedg5 or pcDNA3 DNA was diluted in 240 μl OPTI-MEM (Gibco; Cat. 31985-062)
1) 0.01×10^6 cells were plated per well of a 96-well Blackview plate coated with polyD-lysine. No cells were plated in the outside wells of the 96-well plate.

HL-60 cells = experiment: IL-8 ELISA on HL-60 cells; format: cell-based, human; settings: 1, 6 or 24 hr, S1P or LPA up to 3 μM, TNF-α 10 ng/ml
Description: Procedure for HL-60 Cells:
Cells: HL-60 (promyelocytic, human) suspension cells
Media: RPMI 1640 medium with 2 mM L-glutamine adjusted to contain 4.5 g/L glucose, 10 mM HEPES, and 1.0 mM sodium pyruvate+10% FBS
1) Cells were plated at a density of 0.25×10^6 cells/ml.
2) Cell pellcts were resuspended in 0.5% FBS media at a density of approximately 1×10^6 cells/ml.
1) Made up all required solutions in 0.5% FBS media (control).
2) 1.4 ml appropriate treatments were added to each well of a 6-well plate.
5) 100 μl cell suspension was added to each well.
7) After the specified time cell supematants were collected into 1.5 ml eppendorf tubes, spun down at 14000 rpm for 5 minutes and stored at −20° C.
D. Refer to Procedure #1 For HeLa Cells (D).

[5] = S1P 1 μM, 30 minute pre-treatment

Sequence of rat edg4 (P47752 whole entry): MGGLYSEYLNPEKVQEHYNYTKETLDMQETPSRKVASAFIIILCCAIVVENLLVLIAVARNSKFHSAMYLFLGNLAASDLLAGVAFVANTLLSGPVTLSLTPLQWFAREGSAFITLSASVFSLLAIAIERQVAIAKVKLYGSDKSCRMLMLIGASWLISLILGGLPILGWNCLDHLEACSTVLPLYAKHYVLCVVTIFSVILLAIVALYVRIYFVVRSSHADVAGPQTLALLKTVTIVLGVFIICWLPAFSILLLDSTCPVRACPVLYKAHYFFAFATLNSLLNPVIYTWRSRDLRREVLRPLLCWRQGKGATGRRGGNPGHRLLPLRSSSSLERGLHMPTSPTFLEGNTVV

Question: What does the source list for `CCCCCCCCCCCCC/C=C/[C@@H](O)[C@@H](N)CO[C@@H]1O[C@H](CO)[C@H](O)[C@H](O)[C@H]1O` [Psychosine]?
Answer: Cytotoxicity (qualitative) ([1]; higher concentrations): cytotoxicity at higher concentrations; IL-8 response (qualitative) [2]: Marginal increases; EC50 (human EDG-4): > 10 µM; Agonist character at EDG-4 (human EDG-4): poor potency and efficacy; Rank (EMax) (human EDG-4): 5

Question: For `CCCCC/C=C\C/C=C\C/C=C\C/C=C\CCCC(=O)NCCO` [anandamide], which “IL-8 response (qualitative)” value [2] is on record?
Answer: no response

Question: How did the “Inhibition of IL-8 response to S1P by antioxidants” value (HeLa cells [3]; [5]) turn out when `CC(=O)N[C@@H](CS)C(=O)O` [NAC] was run?
Answer: significantly inhibited

Question: Which “IL-8 production (ligand selectivity)” value (HeLa cells [3]; 6 hours, 10-5000 nM or 0.3 and 3 μM) does the source give for `CCCCCCCCCCCCC/C=C/[C@@H](O)[C@@H](N)CO` [sphingosine, Sphingosine] here?
Answer: lack of response

Question: Which Toxicity (HeLa cells [4]) does the source give for `CC(Cc1ccc(O)c(O)c1)C(C)Cc1ccc(O)c(O)c1` (stereo not drawn) [NDGA] here?
Answer: some toxicity

Question: What about the “Relative potency of antioxidants in inhibiting IL-8 response to S1P” value (HeLa cells [3]; S1P 1 μM) of the same molecule?
Answer: more potent than the hydrophilic NAC

Question: What about the “Inhibition of IL-8 response to S1P at 40 μM” value (HeLa cells [3]; S1P 1 μM, NDGA 40 μM) of the same molecule?
Answer: completely inhibited the IL-8 response to S1P

Question: What about the “Inhibition of IL-8 response to S1P by antioxidants” value (HeLa cells [3]; [5]) of the same molecule?
Answer: significantly inhibited

Question: How did the “Inhibition of the IL-8 response to edelfosine” value (HeLa cells [3]; PTX 50 ng/ml or suramin 1 mg/ml) turn out when `Cc1ccc(C(=O)Nc2ccc(S(=O)(=O)O)c3cc(S(=O)(=O)O)cc(S(=O)(=O)O)c23)cc1NC(=O)c1cccc(NC(=O)Nc2cccc(C(=O)Nc3cc(C(=O)Nc4ccc(S(=O)(=O)O)c5cc(S(=O)(=O)O)cc(S(=O)(=O)O)c45)ccc3C)c2)c1` [Suramin] was run?
Answer: potently inhibited

Question: And the “Effect of suramin on IL-8 response to S1P” value (HeLa cells [3]; S1P 1 μM, suramin 1 mg/ml, 30 minute pre-treatment)?
Answer: extremely effective in blunting the IL-8 response to S1P

Question: Which EC50 (human EDG-4) does the source give for `CCCCCCCCCCCCCCC[C@@H](O)[C@@H](N)COP(=O)(O)O` [Dihydro-S1P, dihydrosphingosine 1-phosphate] here?
Answer: 0.53 µM

Question: What about the “Agonist character at EDG-4” value (human EDG-4) of the same molecule?
Answer: partial agonist

Question: What about the “Max. Fold” value (human EDG-4; fold luciferase response, 6 hr) of the same molecule?
Answer: 2.84

Question: And the “Rank (EMax)” value (human EDG-4)?
Answer: 3

Question: And the “EMax (Percent)” value (human EDG-4; relative efficacy, 6 hr)?
Answer: 49.2%

Question: Which “Concentration at which cytotoxicity was seen” value [1] does the source give for `CCCCCCCCCCCCC/C=C/[C@@H](O)C(N)CO[C@@H]1O[C@H](CO)[C@@H](O)[C@H](O)[C@@H]1O` (stereo partly drawn) [Glucospychosine, glucopsychosine] here?
Answer: ^aCytotoxicity was seen at 10 μM or higher concentrations, preventing quantitative determination of EC50 or EMax

Question: And the “Cytotoxicity (qualitative)” value [1]?
Answer: cytotoxicity at higher concentrations

Question: What about the EC50 (human EDG-4) of the same molecule?
Answer: > 10 µM

Question: And the “Agonist character at EDG-4” value (human EDG-4)?
Answer: poor potency and efficacy

Question: What about the “Rank (EMax)” value (human EDG-4) of the same molecule?
Answer: 4

Question: With `CCCCCCCCCCCCCC(=O)O[C@@H]1[C@@H](C)[C@@]2(O)[C@@H](C=C(CO)C[C@]3(O)C(=O)C(C)=C[C@@H]23)[C@H]2C(C)(C)[C@]12OC(C)=O` [TPA] as the molecule, how does the “NF-κB reporter induction (qualitative)” value (rat edg4) read?
Answer: strongly induced the NF-κB reporter

Question: How did the “IL-8 response (qualitative)” value [2] turn out when `CCCCCCCCCCCCCCCCCCOCC(COP(=O)([O-])OCC[N+](C)(C)C)OC` (stereo not drawn) [Edelfosine] was run?
Answer: no response

Question: Which IL-8 release (HL-60 cells) does the source give for TNF-α here?
Answer: releasing IL-8

Source: patent US6482609B1, “Isolated human EDG-4 receptor and polynucletide encoding said receptor” (priority 1997, dated 2002)
